Results published in patent US20150157739A1, “Imidazo[2,1]thiazol-3-one derivatives” (Hoffmann-La Roche Inc., priority 2012, published 2015).
pIC50: −log10 of the molar value.

Assays:
[1] = target: T1, aggregated recombinant human-microtubule associated protein Tau (Homo sapiens, UniProt P10636); assay: Thiazin-red R displacement fluorescence assay on aggregated Tau; assay type: binding; details: displacement of Thiazin-red R from aggregated Tau; compound 0.3 nM to 10000 nM; 30 min room temperature; Ex 531 nm/Em 595 nm
T1 construct: Recombinant human-microtubule associated protein Tau purified from E. coli is aggregated at a concentration of 5 μM with Arachidonic Acid (100 μM) in Tris 10 mM pH8, 24 h at 37° C

[2] = target: T2, aggregated synthetic Aβ40 (Homo sapiens, UniProt P05067); assay: Thiazin-red R displacement fluorescence assay on aggregated A-beta; assay type: binding; details: displacement of Thiazin-red R from aggregated Aβ40; compound 0.3 nM to 10000 nM; 30 min room temperature; Ex 531 nm/Em 595 nm
T2 construct: Synthetic Aβ40 is aggregated at a concentration of 50 μM
T2 sequence (P05067 672-711 limits assumed): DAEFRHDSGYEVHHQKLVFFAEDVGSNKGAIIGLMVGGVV

T1 sequence (P10636 whole entry): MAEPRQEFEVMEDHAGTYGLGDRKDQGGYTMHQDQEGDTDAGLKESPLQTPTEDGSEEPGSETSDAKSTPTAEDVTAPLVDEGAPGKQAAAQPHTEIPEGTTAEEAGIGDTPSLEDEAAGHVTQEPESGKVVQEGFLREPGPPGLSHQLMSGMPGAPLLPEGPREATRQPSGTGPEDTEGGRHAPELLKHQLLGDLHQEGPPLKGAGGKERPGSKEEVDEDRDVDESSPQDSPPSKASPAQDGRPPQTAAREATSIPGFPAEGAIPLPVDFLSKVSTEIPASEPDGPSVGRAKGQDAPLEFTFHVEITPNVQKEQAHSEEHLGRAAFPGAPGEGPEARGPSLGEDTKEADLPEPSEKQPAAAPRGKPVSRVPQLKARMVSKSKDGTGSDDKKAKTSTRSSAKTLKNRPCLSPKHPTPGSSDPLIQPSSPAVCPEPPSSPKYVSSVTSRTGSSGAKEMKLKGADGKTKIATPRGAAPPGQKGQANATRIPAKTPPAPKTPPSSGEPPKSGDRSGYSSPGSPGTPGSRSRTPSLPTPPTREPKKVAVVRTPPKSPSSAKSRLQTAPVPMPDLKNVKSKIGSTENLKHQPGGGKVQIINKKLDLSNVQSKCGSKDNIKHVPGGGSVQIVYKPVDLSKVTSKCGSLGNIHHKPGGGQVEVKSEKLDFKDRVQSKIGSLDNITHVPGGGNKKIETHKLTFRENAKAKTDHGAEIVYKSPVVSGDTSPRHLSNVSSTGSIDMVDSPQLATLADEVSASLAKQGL

Row | SMILES | pIC50 [1] | pIC50 [2]
1 | COc1cc(/C=c2\sc3nc(-c4cc(C)nc(C)c4)cn3c2=O)ccc1O [Example 13, 2-[1-(4-Hydroxy-3-methoxy-phenyl)-meth-(Z)-ylidene]-6-(2,6-dimethyl-pyridin-4-yl)-imidazo[2,1-b]thiazol-3-one] | 7.04 | < 5.00
2 | COc1cc(/C=c2\sc3nc(-c4ccc5c(c4)OCCO5)cn3c2=O)cc(Cl)c1O [Example 100, 2-[1-(3-Chloro-4-hydroxy-5-methoxy-phenyl)-meth-(Z)-ylidene]-6-(2,3-dihydro-benzo[1,4]dioxin-6-yl)-imidazo[2,1-b]thiazol-3-one] | 8.05 | 5.97
3 | COc1cc(/C=c2\sc3nc(-c4ccnc(C)c4)cn3c2=O)cc(Cl)c1O [Example 75, 2-[1-(3-Chloro-4-hydroxy-5-methoxy-phenyl)-meth-(Z)-ylidene]-6-(2-methylpyridin-4-yl)-imidazo[2,1-b]thiazol-3-one] | 8.89 | 6.91
4 | C=CCOc1cccc(-c2cn3c(=O)/c(=C/c4cc(Cl)c(O)c(OC)c4)sc3n2)c1 [Example 80, 2-[1-(3-Chloro-4-hydroxy-5-methoxy-phenyl)-meth-(Z)-ylidene]-6-(3-(allyloxy)phenyl)-imidazo[2,1-b]thiazol-3-one] | 8.22 | 7.70
5 | Cc1cc(-c2cn3c(=O)/c(=C/c4cc(Cl)c(O)c(OCCCF)c4)sc3n2)cc(C)n1 [Example 153, 2-[1-[3-Chloro-5-(3-fluoro-propoxy)-4-hydroxy-phenyl]-meth-(Z)-ylidene]-6-(2,6-dimethyl-pyridin-4-yl)-imidazo[2,1-b]thiazol-3-one] | 7.34 | 6.22
6 | COc1cc(/C=c2\sc3nc(-c4cccc(OC(F)(F)F)c4)cn3c2=O)cc(Cl)c1O [Example 22, 2-[1-(3-Chloro-4-hydroxy-5-methoxy-phenyl)-meth-(Z)-ylidene]-6-(3-trifluoromethoxy-phenyl)-imidazo[2,1-b]thiazol-3-one] | 8.52 | 6.70
7 | CCCOc1cc(/C=c2\sc3nc(-c4ccccn4)cn3c2=O)cc(Cl)c1O [Example 136, 2-[1-(3-Chloro-4-hydroxy-5-propoxy-phenyl)-meth-(Z)-ylidene]-6-pyridin-2-yl-imidazo[2,1-b]thiazol-3-one] | 7.52 | 6.53

Continued, values first:

Row | pIC50 [1] | pIC50 [2] | SMILES
8 | 8.15 | 6.48 | COc1cc(/C=c2\sc3nc(-c4ccc(C(=O)N(C)CCCF)cc4)cn3c2=O)cc(Cl)c1O [Example 137]
9 | 8.70 | 6.88 | COc1cc(/C=c2\sc3nc(-c4ccc(C(=O)N5CC(F)C5)cc4)cn3c2=O)cc(Cl)c1O [Example 134, 2-[1-(3-Chloro-4-hydroxy-5-methoxy-phenyl)-meth-(Z)-ylidene]-6-[4-(3-fluoro-azetidine-1-carbonyl)-phenyl]-imidazo[2,1-b]thiazol-3-one]
10 | 8.22 | 7.60 | COc1cc(/C=c2\sc3nc(-c4ccc(OCCF)cc4)cn3c2=O)cc(Cl)c1O [Example 79, 2-[1-(3-Chloro-4-hydroxy-5-methoxy-phenyl)-meth-(Z)-ylidene]-6-(4-(2-fluoroethoxyl)phenyl)-imidazo[2,1-b]thiazol-3-one]
11 | 7.60 | 6.19 | CCc1cccc(-c2cn3c(=O)/c(=C/c4cc(Cl)c(O)c(OC)c4)sc3n2)c1 [Example 54, 2-[1-(3-Chloro-4-hydroxy-5-methoxy-phenyl)-meth-(Z)-ylidene]-6-(3-ethyl-phenyl)-imidazo[2,1-b]thiazol-3-one]
12 | 8.74 | 6.93 | COc1cc(/C=c2\sc3nc(-c4ccc(C(=O)NCCNC(=O)OC(C)(C)C)cc4)cn3c2=O)cc(Cl)c1O [Example 150, [2-(4-{2-[1-(3-Chloro-4-hydroxy-5-methoxy-phenyl)-meth-(Z)-ylidene]-3-oxo-2,3-dihydro-imidazo[2,1-b]thiazol-6-yl}-benzoylamino)-ethyl]-carbamic acid tert-butyl ester]
